Here are results for 1 compound from patent US12077495B2 (priority 2018, dated 2024).

pKi: −log10 of the molar value.

In test [1] the test system is permanent middle cerebral artery occlusion in C57BL/6J mice. Put plainly: pMCAO model of focal ischemia, infarct volume. It is filed as in vivo. The following applies: 175 mg/kg 30 min after pMCAO; day 3; saline 16.6. On the procedure:
The pMCAO study was performed using age-matched, young adult (7-8 weeks), male C57BL/6J mice (Taconic). Mice were housed in separate cages under diurnal lighting and given free access to food (1314 Altromin) and water. Mice were acclimatized for seven days prior to surgery in accordance with guidelines approved by the Danish Animal Ethical Committee.
Focal cerebral ischemia was made by permanent occlusion of the distal part of the left middle cerebral artery (MCA). Mice were anesthetized by injection of a mixture of Hypnorm (fentanyl citrate 0.315 mg/ml and fluanisone 10 mg/ml; Jansen-Cilag), Stesolid (5 mg/ml Diazepamum; Dumex) and distilled water (1:1:2; 0.20 ml/10 g body weight, s.c.). The mouse was placed on a 37±0.5° C. warm heating pad and a skin incision was made from eye to ear. […]
For quantification of the infarcted area, animals were perfused with saline and then with 4% paraformaldehyde (PFA) and the brain dissected out and submerged in 4% PFA for post-fixing overnight. […] Sections were mounted, stained for cresyl violet and the infarct volumes determined by measuring every 6th section through the entire infarct as described in Lie et al (2017). […] The glass slides were stored at −80° C. until further processing, and then Cresyl-Violet stained and quantified as described for the photothrombotic photochemical method. […]

The test system is the same in test [2]. Put plainly: pMCAO model, behavioural assessment (rotarod, grip strength, Hargreaves). It is filed as in vivo. The following applies: 175 mg/kg 30 min after pMCAO. On the procedure:
To assess sensory-motor impairment, animals were tested in the rotarod, grip strength and Hargreaves tests 2-3 days post-stroke.
The rotarod (LE 8200, Panlab) measures motor performance in rodents by assessing the time during which the animal remains on a rotating rod. The rod rotation accelerates from 0 to 40 rounds per min (rpm) over a time period of 5 min 48 hrs post-stroke, mice were tested in four repeating trials with a 20 min interval (resting time). Prior to surgery, mice were pretrained to stay on the rod for 30 s at 4 rpm. The grip strength meter (BIO-GT-3, BIOSEB) allowed the study of neuromuscular functions in mice by determining the maximum force that is required to make the mouse release its grip.
The mouse is allowed to grasp a metal grid and then pulled backwards in the horizontal plane. The force applied to the grid is recorded as the peak tension. Individual (right and left) and total (both) front paw grip strength was measured before (baseline) and 3 days after pMCAO. Each mouse was tested in five sequential trials and the highest grip strength was recorded as the score. Thermal hyperalgesia (hind paw withdrawal from a normally innocuous heat source) was tested with a Hargreaves test setup. […] The lowest and highest reflex latency scores were discarded and the average for left and right was calculated and plotted.
Compound A (175 mg/kg) was administered to mice 30 min after induction of a focal stroke via a permanent occlusion of the middle cerebral artery and compared to saline-treated animals and both motor- and sensory impairment was investigated using rotarod, grip strength and Hargreaves tests.
In general terms: The rotarod test checks motor coordination on a turning rod.

In another test the target is T1, CAMK2A (Rattus norvegicus, UniProt P11275).
T1 construct: host or cells: HEK293T
Briefly: biochemical. The following applies: whole cell lysates of CAMK2A-transfected HEK293T cells. It is filed as binding. On the procedure:
Cells were transfected with rat CAMK2A (Origene construct RR201121) or rat CAMK2B (Origene construct RR200520) using PolyFect (Qiagen, West Sussex, UK) according to the manufacturer's protocol. Whole cell homogenates were prepared 48 hr post-transfection by washing the cells with ice-cold 1×PBS and harvesting by scraping. Cells were collected and centrifuged for 10 min at 1000×g. Cell pellets were resuspended in ice-cold 1×PBS and homogenized using 2×1 mm zirkonium beads in a bullet blender for 20 s at max speed (NextAdvance, NY, USA). Homogenates were cleared by centrifugation (10 min, 4° C., 14.000×g). Protein concentration was determined using the Bradford protein assay. 150-200 μg protein was incubated with 5 nM ^3H-A and test compound in 1 ml total volume for 1 hr at 0-4° C. […] Proteins were then precipitated by addition of ice-cold acetone (4× of the assay volume), vortexing and incubation at −20° C. for 1 hr. Proteins were filtrated rapidly through GF/C unifilters (Whatman) and washed. The dried filters were added scintillation liquid and radioactivity measured on a Tricarb 2100 Scintillation counter (Packard).
A) Principle of photoaffinity labelling workflow. […] After introduction of biotin through a Staudinger-Bertozzi ligation to EZ-Link™ Phosphine-PEG3-Biotin (ThermoFisher Scientific), the biotin-labelled proteins were affinity-purified and subjected to LC-MS/MS analysis. […] C)^3H-A binding to cortical membranes from CAMK2A and CAMK2B knock-out mouse brains.
Human/rat CAMK2A expressed in HEK cells was assayed in an in-house established ^3H-A filtration binding assay performed on whole cell lysates of CAMK2A-transfected HEK293T cells.

T1 sequence (P11275 whole entry): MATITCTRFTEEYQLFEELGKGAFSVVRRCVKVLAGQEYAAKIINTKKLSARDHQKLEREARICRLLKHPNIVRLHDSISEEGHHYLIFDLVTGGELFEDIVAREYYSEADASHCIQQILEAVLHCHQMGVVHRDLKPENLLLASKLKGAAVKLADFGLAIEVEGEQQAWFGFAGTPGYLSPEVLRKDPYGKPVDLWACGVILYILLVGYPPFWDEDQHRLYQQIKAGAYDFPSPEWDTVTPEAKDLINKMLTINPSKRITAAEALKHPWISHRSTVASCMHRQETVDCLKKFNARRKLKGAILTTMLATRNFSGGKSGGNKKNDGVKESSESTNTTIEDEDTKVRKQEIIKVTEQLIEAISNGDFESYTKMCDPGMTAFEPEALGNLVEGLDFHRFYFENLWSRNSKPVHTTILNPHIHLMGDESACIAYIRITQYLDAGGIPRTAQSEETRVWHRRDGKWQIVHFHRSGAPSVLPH

Broadly, the pKi is the negative decadic logarithm of the Ki, by convention in mol/L. As to `O=C(O)C1=CC(O)CC1` (centres unmarked) [Compound A, 3-hydroxycyclopent-1-enecarboxylic acid], in test [1], the infarct volume is given as 12.3 mm^3. Further, in test [2], the “Hargreaves test, increased response time in affected forelimb” value is given as “not evident”. Moreover, the “rotarod test, learning” value in test [2] (48 hrs post-stroke, T1 to T2) is on record as “steeper learning curve”. Further, in test [2] (three days after stroke), the “grip strength deficit in affected fore limb” value was “did not demonstrate any deficit”. In addition, on CAMK2A, the pKi is 5.71.
